The values that follow come from patent US20260159500A1, “KINESIN KIF18A INHIBITOR AND USE THEREOF” (SHANGHAI APEIRON THERAPEUTICS COMPANY LIMITED, priority 2022, published 2026).

Test [1] concerns the target T1, Human KIF18A (amino acid sequence 1-417) (Homo sapiens, UniProt Q8NI77).
T1 construct: purchased Viva Biotech (Shanghai) Ltd
T1 sequence (Q8NI77 1-417): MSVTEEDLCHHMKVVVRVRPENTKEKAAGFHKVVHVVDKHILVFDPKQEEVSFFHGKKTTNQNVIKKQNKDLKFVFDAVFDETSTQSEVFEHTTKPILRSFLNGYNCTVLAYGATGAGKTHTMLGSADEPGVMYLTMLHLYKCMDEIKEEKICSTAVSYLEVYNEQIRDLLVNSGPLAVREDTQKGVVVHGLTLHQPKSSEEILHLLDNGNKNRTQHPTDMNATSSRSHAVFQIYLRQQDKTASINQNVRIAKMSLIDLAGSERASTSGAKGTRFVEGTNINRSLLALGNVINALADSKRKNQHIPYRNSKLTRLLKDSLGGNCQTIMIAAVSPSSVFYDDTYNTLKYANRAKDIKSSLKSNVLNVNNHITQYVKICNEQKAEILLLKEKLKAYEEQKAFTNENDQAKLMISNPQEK
Description: Enzymatic activity test (ADP-Glo, microtubule-stimulated KIF18A ATPase). Format: biochemical. The conditions noted are these: 60 μg/mL microtubules, 25 μM ATP, 2.5 nM KIF18A protein, 120 min at ambient temperature, read-out: KIF18A_nM. As for the experimental part: Human KIF18A (amino acid sequence 1-417) was purchased from Viva Biotech (Shanghai) Ltd.; the ADP-Glo™ protein kinase kit was acquired from Promega, USA; tubulin was sourced from Cytoskeleton, USA; and the 384-well assay plate and Envision multifunctional microplate reader were obtained from PerkinElmer, USA.
Dissolve the compound powder in DMSO to prepare a stock solution of 10 mM. Then perform gradient dilution for the compounds in the microplate to achieve a final concentration of 0-10 μM. Then, add 2.5 μL each of tubulin, compound, ATP, and KIF18A protein to the microplate in sequence for reaction at ambient temperature for 120 min. The final concentrations in the enzyme reaction are 60 μg/mL for microtubules, 25 μM for ATP, and 2.5 nM for KIF18A protein. After the enzyme reaction, add 10 μL of ADP-GLO reaction reagent to each well and incubate at ambient temperature for 30 min. After that, add 20 μL of detection reagent to each well and incubate at ambient temperature for 30 min in the dark. Finally, perform chemiluminescence detection using the PerkinElmer Envision.
(In general: ADP-Glo first removes unused ATP, then detects ADP through luciferase.)

Another test concerns OVCAR3 cells. Description: Cell proliferation activity test in OVCAR3 cells (CyQUANT Direct). Conditions: Homo sapiens, OVCAR-3, 72 h, 3 days incubation, CyQUANT fluorescence detection, read-out: OVCAR-3_IC50_nM. The class given is cell-based. As for the experimental part: OVCAR3 cells were purchased from Nanjing Cobioer Biosciences Co., Ltd. RPMI-1640 medium, fetal bovine serum, and the CyQUANT Direct Cell Proliferation Assay kit were purchased from Thermo Fisher Scientific, USA; 96-well cell culture plates were sourced from Corning, USA.
Culture OVCAR3 cells with RPMI-1640 medium containing 10% fetal bovine serum and incubate them in a 5% CO2 incubator at 37° C. Only cells in the logarithmic growth phase can be used for the test.
Inoculate OVCAR3 cells into a 96-well cell culture plate at 90 μL per well and incubate overnight in a 5% CO2 incubator at 37° C. Dissolve the compound powder in DMSO to prepare a stock solution of 10 mM. Then perform gradient dilution for the compounds in the microplate to achieve a final concentration of 0-10 μM. Add 10 μL of cell culture medium containing compounds to each well to make the final DMSO content 0.2%. Incubate the cell plates in a 5% CO2 incubator at 37° C. for 3 days. Add 100 μL of CyQUANT detection reagent to each well, react at 37° C. for 60 min, and perform fluorescence detection using the PerkinElmer Envision.

The next test has as its system HT29 cells. The test is described as follows: CyQuant cell proliferation activity test in HT29 cells. Format: cell-based. Conditions: Homo sapiens, HT-29, 72 h, 2000 cells per well, 3 days incubation, IC50 by XLFIT, read-out: HT29_IC50_nM. As for the experimental part:
HT29 cells were purchased from Nanjing Cobioer Biosciences Co., Ltd.; RPMI-1640 medium, fetal bovine serum, Trypsin-EDTA (0.25%), 96-well plates, and CyQuant reagents were purchased from ThermoFisher (USA); DMSO was purchased from SIGMA (USA).
Culture HT29 cells with RPMI-1640 containing 10% fetal bovine serum under the condition of 37° C. and 5% CO2. Only cells in the logarithmic growth phase can be used for the test.
Use the CyQuant reagent to detect the proliferation inhibitory activity of compounds on HT29 cells. Adjust the cell density and inoculate 100 μL per well into the 96-well plate (HT29 at 2000 cells per well), then incubate overnight under the condition of 37° C. and 5% CO2. Add compounds of various target concentrations (initial concentration of 3000 nM, 3-fold dilution, 9 concentration gradients), and make the DMSO content 0.2%. Incubate the cell plates at 37° C. and 5% CO2 for 3 days. Incubate with CyQuant reagent for 1 h, read the plate by Envision, and calculate IC50 using XLFIT.

As to `O=C(Nc1cc2ncnn2c(N2CCC(F)(F)CC2)n1)c1cc(F)c(NS(=O)(=O)CCO)cc1N1CCC2(CC1)CC2` [Example 25, (2-(6-azaspiro[2.5]oct-6-yl)-5-fluoro-4-{[(2-hydroxyethyl)sulphonyl]amino}phenyl)-N-[5-(4,4-difluoropiperidinyl)(4-hydro-1,2,4-triazolo[4,3-e]pyrimidin-7-yl)]formamide], the IC50 in test [1] amounted to 5 nM; with OVCAR3 cells, 46 nM; in the test with HT29 cells it was 84 nM.

With `Cc1nnc2cc(NC(=O)c3ccc(NS(=O)(=O)CCO)cc3N3CCC4(CC3)CC4)nc(N3CCC(F)(F)CC3)n12` [Example 27, N-(5-(4,4-difluoropiperidin-1-yl)-3-methyl-[1,2,4]triazolo[4,3-c]pyrimidin-7-yl)-4-(2-hydroxyethylsulfonamido)-2-(6-azaspiro[2.5]octan-6-yl)benzamide], the IC50 in test [1] is 13 nM; with OVCAR3 cells it was 23 nM; in the test with HT29 cells it was 33 nM.

`O=C(Nc1cc2ccsc2c(N2CCC(F)(F)CC2)n1)c1ccc(NS(=O)(=O)CCO)cc1N1CCC2(CC1)CC2` [Example 28, N-(7-(4,4-difluoropiperidin-1-yl)thieno[2,3-c]pyridin-5-yl)-4-(2-hydroxyethylsulfonamido)-2-(6-azaspiro[2.5]octan-6-yl)benzamide]: the IC50 came out at 46 nM in test [1], 26 nM in the test with OVCAR3 cells and 9 nM with HT29 cells.

On to `O=C(Nc1cc2ccoc2c(N2CCC(F)(F)CC2)n1)c1ccc(NS(=O)(=O)CCO)cc1N1CCC2(CC1)CC2` [Example 29, N-(7-(4,4-difluoropiperidin-1-yl)furo[2,3-c]pyridin-5-yl)-4-(2-hydroxyethylsulfonamido)-2-(6-azaspiro[2.5]octan-6-yl)benzamide], for which the results for the IC50 (in test [1]; in the test on OVCAR3 cells; in the test on HT29 cells) were 28 nM, 13 nM and 11 nM, respectively.

Consider `O=C(Nc1cc(N2CCC(F)(F)CC2)c2occc2c1)c1ccc(NS(=O)(=O)CCO)cc1N1CCC2(CC1)CC2` [Example 30, N-(7-(4,4-difluoropiperidin-1-yl)benzofuran-5-yl)-4-(2-hydroxyethylsulfonamido)-2-(6-azaspiro[2.5]octan-6-yl)benzamide], for which the IC50 in test [1] was found to be 27 nM; in the test with OVCAR3 cells, 7 nM; in the test on HT29 cells it was 10 nM.

As for `O=C(Nc1cc2occc2c(N2CCC(F)(F)CC2)n1)c1ccc(NS(=O)(=O)CCO)cc1N1CCC2(CC1)CC2` [Example 31, N-(4-(4,4-difluoropiperidin-1-yl)furo[3,2-c]pyridin-6-yl)-4-(2-hydroxyethylsulfonamido)-2-(6-azaspiro[2.5]octan-6-yl)benzamide], the IC50 in test [1] was found to be 71 nM; with OVCAR3 cells, 8 nM; in the test with HT29 cells, 9 nM.

On to `O=C(Nc1nc(N2CCC(F)(F)CC2)c2occc2n1)c1ccc(NS(=O)(=O)CCO)cc1N1CCC2(CC1)CC2` [Example 32, N-(4-(4,4-difluoropiperidin-1-yl)furo[3,2-d]pyrimidin-2-yl)-4-((2-hydroxyethyl)sulfanilamide)-2-(6-azaspiro[2.5]octan-6-yl)benzamide], for which the results for the IC50 (in test [1]; with OVCAR3 cells; with HT29 cells) were 8 nM, 347 nM and 927 nM, respectively.

Consider `Cn1cnc2cc(NC(=O)c3ccc(NS(=O)(=O)CCO)cc3N3CCC4(CC3)CC4)nc(N3CCC(F)(F)CC3)c21` [Example 34], for which the IC50 in test [1] came out at 63 nM; in the test with OVCAR3 cells, 166 nM; with HT29 cells, 446 nM.

On to `Cn1cnc2c(N3CCC(F)(F)CC3)nc(NC(=O)c3ccc(NS(=O)(=O)CCO)cc3N3CCC4(CC3)CC4)cc21` [Example 35, N-(4-(4,4-difluoropiperidin-1-yl)-1-methyl-1H-imidazolo[4,5-c]pyridin-6-yl)-4-((2-hydroxyethyl)sulfonamido)-2-(6-azaspiro[2.5]octan-6-yl)benzamide], for which the IC50 was 29 nM in test [1], 27 nM with OVCAR3 cells and 57 nM with HT29 cells.

`Cn1ncc2c(N3CCC(F)(F)CC3)nc(NC(=O)c3ccc(NS(=O)(=O)CCO)cc3N3CCC4(CC3)CC4)cc21` [Example 36]: the IC50 in test [1] worked out at 39 nM; in the test on OVCAR3 cells, 64 nM; with HT29 cells, 62 nM.

With `Cn1ccc2cc(NC(=O)c3ccc(NS(=O)(=O)CCO)cc3N3CCC4(CC3)CC4)nc(N3CCC(F)(F)CC3)c21` [Example 37], the values for the IC50 (in test [1]; in the test on OVCAR3 cells; in the test on HT29 cells) were 121 nM, 121 nM and 25 nM, respectively.

For the compound `O=C(Nc1cc2nsnc2c(N2CCC(F)(F)CC2)n1)c1ccc(NS(=O)(=O)CCO)cc1N1CCC2(CC1)CC2` [Example 39], the IC50 in test [1] was 38 nM; in the test on OVCAR3 cells, 15 nM; in the test with HT29 cells, 18 nM.

Consider `O=C(Nc1cc(N2CCC(F)(F)CC2)c2nsnc2c1)c1ccc(NS(=O)(=O)CCO)cc1N1CCC2(CC1)CC2` [Example 40, 2-(6-Azaspiro[2.5]oct-6-yl)-4-(2-hydroxyethylsulfonyl)aminophenyl)-N-[4-(4,4-difluoropiperidinyl)benzo[3,4-c]1,2,5-thiadiazole-5-ylcarboxamide], for which the IC50 was determined as 32 nM in test [1], 12 nM with OVCAR3 cells and 10 nM in the test on HT29 cells.

Consider `O=C(Nc1cc(N2CCC(F)(F)CC2)c2ncsc2c1)c1ccc(NS(=O)(=O)CCO)cc1N1CCC2(CC1)CC2` [Example 41, 2-{6-Azaspiro[2.5]octan-6-yl}-N-[4-(4,4-difluoropiperidin-1-yl)-1,3-benzothiazol-6-yl]-4-(2-hydroxyethanesulfonamido) benzamide], for which the IC50 in test [1] stood at 38 nM; in the test on OVCAR3 cells, 4 nM; with HT29 cells it was 4 nM.

Consider `Nc1nc2c(N3CCC(F)(F)CC3)c(F)c(NC(=O)c3ccc(NS(=O)(=O)CCO)cc3N3CCC4(CC3)CC4)cc2s1` [Example 42, N-[2-amino-4-(4,4-difluoropiperidin-1-yl)-5-fluoro-1,3-benzothiazol-6-yl]-2-{6-azaspiro[2.5]octan-6-yl}-4-(2-hydroxyethanesulfonamido)benzamide], for which the figures for the IC50 (in test [1]; in the test with OVCAR3 cells; in the test on HT29 cells) were 213 nM, 7 nM and 17 nM, respectively.

As for `O=C(Nc1cc2c(c(N3CCC(F)(F)CC3)n1)C(=O)NCC2)c1ccc(NS(=O)(=O)CCO)cc1N1CCC2(CC1)CC2` [Example 43, N-(1-(4,4-difluoropiperidin-1-yl)-8-oxo-5,6,7,8-tetrahydro-2,7-naphthyridin-3-yl)-4-(2-hydroxyethylsulfonamido)-2-(6-azaspiro[2.5]octan-6-yl)benzamide], the IC50 in test [1] was 28.7 nM; in the test with OVCAR3 cells it was 7 nM; in the test on HT29 cells it was 17 nM.

As to `O=C(Nc1cc2cccnc2c(N2CCC(F)(F)CC2)n1)c1ccc(NS(=O)(=O)CCO)cc1N1CCC2(CC1)CC2` [Example 44], the IC50 in test [1] turned out to be 105 nM; in the test on OVCAR3 cells it was 21 nM; with HT29 cells it was 26 nM.
